Patent publication US4141989A, “Fungicidal 3-(N-chloroacetyl-N-arylamino)-gamma-butyrolactone compositions” (Chevron Research Company, priority 1977, dated 1979)

Tests used:
Format in all cases: in vivo
Plasmopara viticola [1] = experiment: Preventive grape downy mildew control, detached Emperor leaves (Example 5, Table I); conditions: 100 ppm, sprayed before inoculation
Plasmopara viticola [2] = experiment: Eradicant grape downy mildew control, detached Emperor leaves (Example 6, Table I); conditions: 48 h, sprayed 2 days after inoculation, read-out: Eradicative Grape Downy Mildew Control, %
Plasmopara viticola [3] = experiment: Eradicant downy mildew control on Emperor and Carignane grape leaves (Example 9, Table IV)
Plasmopara viticola [4] = experiment: Preventive grape downy mildew control, detached Cabernet Sauvignon leaves (Example 7, Table II)
Phytophthora cryptogea [5] = experiment: Safflower crown and root rot control by foliar spray (Example 17, Table XII)
Bremia lactucae = experiment: Control of lettuce downy mildew (Example 13, Table VIII)
[6] = test system: Pseudoperonospora cubensis; experiment: Foliar spray control of cucumber downy mildew (Example 15, Table X)
Phytophthora cryptogea [7] = experiment: Snapdragon crown and root rot control, soil drench (Example 16, Table XI); conditions: in vivo
Phytophthora cryptogea [8] = experiment: Snapdragon crown and root rot control, foliar spray (Example 16, Table XI); conditions: in vivo
[9] = Carignane leaves, treated 3 days after inoculation
[10] = Emperor leaves, treated 1 day after inoculation
[11] = Emperor leaves, treated 2 days after inoculation

Compound: Cc1cccc(C)c1N(C(=O)CCl)C1CC(C)OC1=O (stereo not shown) [B, 3-(N-chloroacetyl-N-2,6-dimethylphenylamino)-5-methyl-gamma-butyrolactone]
- pest or weed control at 100 ppm (Plasmopara viticola [1]): 80%
- pest or weed control at 40 ppm (Plasmopara viticola [2]): 95%

Compound: CCC(=O)N(c1ccc(Cl)c(Cl)c1)C1CCOC1=O (stereo not shown) [Compound 1]
- pest or weed control at 100 ppm (Plasmopara viticola [1]): 0%
- pest or weed control at 40 ppm (Plasmopara viticola [2]): 5%

Compound: Cc1cccc(C)c1N(C(=O)c1ccc(Cl)c(Cl)c1)C1CCOC1=O (stereo not shown) [Compound 2]
- pest or weed control at 100 ppm (Plasmopara viticola [2]): 29%

Compound: COc1ccccc1N(C(=O)CCl)C1CCOC1=O (stereo not shown) [Compound 3]
- pest or weed control at 100 ppm (Plasmopara viticola [1]): 0%
- pest or weed control at 100 ppm (Plasmopara viticola [2]): 12%

Compound: Cc1cccc(C)c1N(C(=O)CCl)C1CCN(C)C1=O (stereo not shown) [Compound 4]
- pest or weed control at 100 ppm (Plasmopara viticola [2]): 3%

Compound: O=C1OCCC1N(C(=O)CCl)c1ccccc1 (stereo not shown) [Compound 5]
- pest or weed control at 100 ppm (Plasmopara viticola [2]): 0%

Compound: CCc1cccc(CC)c1N(C(=O)CCl)C1CCOC1=O (stereo not shown) [Compound 6]
- pest or weed control at 100 ppm (Plasmopara viticola [1]): 0%
- pest or weed control at 100 ppm (Plasmopara viticola [2]): 39%

Compound: CC(C)c1ccccc1N(C(=O)CCl)C1CCOC1=O (stereo not shown) [Compound 7]
- pest or weed control at 100 ppm (Plasmopara viticola [1]): 3%
- pest or weed control at 16 ppm (Plasmopara viticola [2]; 16 ppm): 17%

Compound: CCc1ccccc1N(C(=O)CCl)C1CCOC1=O (stereo not shown) [Compound 8]
- pest or weed control at 100 ppm (Plasmopara viticola [1]): 0%
- pest or weed control at 100 ppm (Plasmopara viticola [2]): 0%

Compound: O=C1OCCC1N(C(=O)CCl)c1c(Cl)cccc1Cl (stereo not shown) [Compound 9]
- pest or weed control at 100 ppm (Plasmopara viticola [1]): 0%
- pest or weed control at 40 ppm (Plasmopara viticola [2]): 67%
- pest or weed control at 100 ppm (Plasmopara viticola [2]): 95%

Compound: O=C1OCCC1N(C(=O)CCl)c1ccc(Cl)c(Cl)c1 (stereo not shown) [Compound 10]
- pest or weed control at 100 ppm (Plasmopara viticola [1]): 89%
- pest or weed control at 100 ppm (Plasmopara viticola [2]): 39%

Compound: O=C1OCCC1N(C(=O)CCl)c1cc(Cl)cc(Cl)c1 (stereo not shown) [Compound 11]
- pest or weed control at 100 ppm (Plasmopara viticola [1]): 45%
- pest or weed control at 100 ppm (Plasmopara viticola [2]): 54%

Compound: CCc1cccc(CC)c1N(C(=O)CCl)C1CC(C)OC1=O (stereo not shown) [Compound 12]
- pest or weed control at 100 ppm (Plasmopara viticola [2]): 87%

Compound: CCc1cccc(C)c1N(C(=O)CCl)C1CCOC1=O (stereo not shown) [Compound 13]
- pest or weed control at 100 ppm (Plasmopara viticola [1]): 0%
- pest or weed control at 100 ppm (Plasmopara viticola [2]): 87%

Compound: CCc1cccc(C)c1N(C(=O)CCl)C1CC(C)OC1=O (stereo not shown) [Compound 14]
- pest or weed control at 100 ppm (Plasmopara viticola [2]): 29%

Compound: Cc1cccc(C)c1N(C(=O)CBr)C1CCOC1=O (stereo not shown) [Compound 15]
- pest or weed control at 100 ppm (Plasmopara viticola [2]): 54%

Compound: COc1cccc(OC)c1N(C(=O)CCl)C1CCOC1=O (stereo not shown) [Compound 16]
- pest or weed control at 100 ppm (Plasmopara viticola [2]): 67%

Compound: Cc1cccc(C)c1N(C(=O)CCCl)C1CCOC1=O (stereo not shown) [Compound 17]
- pest or weed control at 100 ppm (Plasmopara viticola [2]): 50%

Compound: Cc1cccc(C)c1N(C(=O)CCl)C1CCN(C(C)C)C1=O (stereo not shown) [Compound 18]
- pest or weed control at 100 ppm (Plasmopara viticola [1]): 15%
- pest or weed control at 100 ppm (Plasmopara viticola [2]): 37%

Compound: Cc1cccc(C)c1N(C(=O)C(Cl)=C(Cl)Cl)C1CCOC1=O (stereo not shown) [Compound 19]
- pest or weed control at 100 ppm (Plasmopara viticola [2]): 15%

Compound: C=CCN1CCC(N(C(=O)CCl)c2c(C)cccc2C)C1=O (stereo not shown) [Compound 20]
- pest or weed control at 100 ppm (Plasmopara viticola [2]): 0%

Compound: Cc1cccc(C)c1N(C(=O)CCl)C1CCNC1=O (stereo not shown) [Compound 21]
- pest or weed control at 100 ppm (Plasmopara viticola [2]): 0%

Compound: Cc1cc(N2CCC(N(C(=O)CCl)c3c(C)cccc3C)C2=O)ccc1Cl (stereo not shown) [Compound 22]
- pest or weed control at 100 ppm (Plasmopara viticola [2]): 32%

Compound: Cc1cccc(C)c1N(C(=O)c1ccc(Cl)cc1)C1CCN(C)C1=O (stereo not shown) [Compound 23]
- pest or weed control at 100 ppm (Plasmopara viticola [2]): 0%

Compound: Cc1cc(C)c(N(C(=O)CCl)C2CCOC2=O)c(C)c1 (stereo not shown) [Compound 24]
- pest or weed control at 100 ppm (Plasmopara viticola [2]): 0%

Compound: Cc1cccc(C(C)(C)C)c1N(C(=O)CCl)C1CCOC1=O (stereo not shown) [Compound 25]
- pest or weed control at 100 ppm (Plasmopara viticola [2]): 0%

Compound: Cc1ccc(N(C(=O)CCl)C2CCOC2=O)cc1C (stereo not shown) [Compound 26]
- pest or weed control at 100 ppm (Plasmopara viticola [1]): 12%
- pest or weed control at 100 ppm (Plasmopara viticola [2]): 87%

Compound: COC(=O)C(C)N(C(=O)CCl)c1c(C)cccc1C (stereo not shown) [Compound 27, reference compound]
- pest or weed control at 100 ppm (Plasmopara viticola [1]): 78%
- pest or weed control at 100 ppm (Plasmopara viticola [2]): 96%

Compound: O=S(=O)([O-])[O-].[Cu+2] [Cupric sulfate]
- Eradication ED50 (ppm of applied spray for 50% control) (Plasmopara viticola [3]; [9]): 380 ppm
- Eradication ED90 (ppm of applied spray for 90% control) (Plasmopara viticola [3]; [9]): 610 ppm
- Eradication ED50 (ppm of applied spray for 50% control) (Plasmopara viticola [3]; [10]): 118 ppm
- Eradication ED90 (ppm of applied spray for 90% control) (Plasmopara viticola [3]; [10]): 289 ppm
- Eradication ED50 (ppm of applied spray for 50% control) (Plasmopara viticola [3]; [11]): 204 ppm
- Eradication ED90 (ppm of applied spray for 90% control) (Plasmopara viticola [3]; [11]): 445 ppm

Compound: O=C1c2ccccc2C(=O)N1SC(Cl)(Cl)Cl [Folpet, N-(trichloromethylthio)phthalimide, reference compound]
- Percent Control (Plasmopara viticola [4]; 6.4 ppm): 80.1%
- Percent Control (Plasmopara viticola [4]; 16 ppm): 98.8%
- Percent Control (Plasmopara viticola [4]; 40 ppm): 97.7%

Compound: COC(=O)C(C)N(C(=O)CCl)c1c(C)cccc1C (stereo not shown) [drawing 3, reference compound]
- % Control (Phytophthora cryptogea [5]; 16 ppm): 0%
- % Control (Phytophthora cryptogea [5]; 40 ppm): 0%
- % Control (Phytophthora cryptogea [5]; 100 ppm): 10%

Compound: Manganous ethylene bisdithiocarbamate [Maneb, reference compound]
- % Dead Seedlings (Bremia lactucae): 14.5%
- % Control (Bremia lactucae; in vivo): 40.6%
- % Control ([6]; 16 ppm): 80%
- % Control ([6]; 40 ppm): 90%
- % Control ([6]; 100 ppm): 98.3%

Compound: {[1,2-ethanediylbis(carbamodithioato)](2-)} manganese mixture with {[1,2-ethanediylbis(carbamodithioato)](2-)}-0 zinc [Mancozeb, reference compound]
- % Control (Phytophthora cryptogea [7]): 0%
- % Control (Phytophthora cryptogea [8]): 0%
